Test results taken from EPA's ToxValDB 9.5 (doi:10.2903/j.efsa.2015.4302).

How the values were obtained:
Anabaena flosaquae = settings: acute; duration: 72 hours
Oncorhynchus mykiss = settings: chronic/long-term; duration: 85 days; growth
Anas platyrhynchos = settings: reproductive
Tagia sp. = settings: acute; duration: 14 days; mortality
Apis mellifera = settings: acute, mortality
Daphnia magna = settings: chronic/long-term; duration: 21 days; reproduction
Colinus virginianus = settings: for LC50 / LD50: acute, oral, mortality; for LC50: diet
Danio rerio = settings: short-term; duration: 168 hours; growth
Oryctolagus sp. = settings: repeat dose other; mortality
Pimephales promelas = settings: chronic/long-term; duration: 255 days; growth
Skeletonema costatum = settings: acute; duration: 72 hours; growth

Structure (SMILES)	NOEC (Anabaena flosaquae) [mg/L]	NOEC (Oncorhynchus mykiss) [mg/L]	NOEL (Anas platyrhynchos) [mg/kg-day]	LC50 (Tagia sp.) [mg/kg]	LD50 (Apis mellifera; dermal) [µg/piece]	LD50 (Apis mellifera; oral, unspecified) [µg/piece]	NOEC (Daphnia magna) [mg/L]	LC50 (Colinus virginianus) [mg/kg-day]	LD50 (Colinus virginianus) [mg/kg-day]	NOEL (Colinus virginianus; reproduction developmental) [mg/kg-day]	NOEC (Danio rerio) [mg/L]	NOAEL (Oryctolagus sp.) [mg/kg-day]	LD50 (Rattus norvegicus; acute, mortality) [mg/kg-day]	NOAEL (Rattus norvegicus; chronic) [mg/kg-day]	NOEC (Pimephales promelas) [mg/L]	NOEC (Skeletonema costatum) [mg/L]
O=C(O)CNCP(=O)(O)O [Glyphosate]	12	9.6	125	5600	> 100	100	12.5	> 5200	4330	96.3	1	50	> 2000	197	25.7	1.82
NCP(=O)(O)O [Aminomethylphosphonic acid]								> 5620	> 2250							
